pEC50: −log10 of the molar value.

The term pEC50 denotes the negative decadic logarithm of the EC50, by convention in mol/L. One may read the melting point as the temperature, or range, at which the solid turns liquid.

T1 sequence (Q05941 23-502): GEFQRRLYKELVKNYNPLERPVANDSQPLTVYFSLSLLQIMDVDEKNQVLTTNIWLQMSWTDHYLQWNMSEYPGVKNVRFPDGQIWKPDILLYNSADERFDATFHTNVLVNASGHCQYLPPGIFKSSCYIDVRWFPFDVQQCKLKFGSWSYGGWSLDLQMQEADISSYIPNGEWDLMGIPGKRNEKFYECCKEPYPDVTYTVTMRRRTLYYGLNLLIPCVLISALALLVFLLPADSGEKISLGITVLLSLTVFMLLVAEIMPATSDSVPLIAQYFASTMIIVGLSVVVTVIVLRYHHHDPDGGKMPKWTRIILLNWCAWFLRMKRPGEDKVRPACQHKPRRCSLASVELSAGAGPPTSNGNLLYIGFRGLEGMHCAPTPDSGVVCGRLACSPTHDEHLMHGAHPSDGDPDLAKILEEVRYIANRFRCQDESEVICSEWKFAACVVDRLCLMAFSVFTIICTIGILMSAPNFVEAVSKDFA

The first data set concerns the target T1, α7 nAChR (rat α7/CHO cells) (Rattus norvegicus, UniProt Q05941).
T1 construct: expressed in transfected cells; host or cells: CHO cells (α7/CHO)
The data set is described as follows: Evaluation of modulators of α7 nAChRs using the IonFlux HT automated patch clamp system (potentiation of EC20 ACh-evoked currents). It counts as cell-based. The settings on record: percent potentiation of ACh (EC20, approx. 60 μM) response in α7/CHO cells; 6-point dose response 0.03-10 μM; whole cell patch clamp. How it is done: Evaluation of Modulators of α7 nAChRs Using the IonFlux^HT Automated Patch Clamp System
Acetylcholine was freshly prepared for each plate run and used at an EC20 concentration (approximately 60 μM for rat α7/CHO) to induce α7 nAChR currents on the IonFlux^HT. To prepare the ACh solution for a single plate, 6 μl of the 100 mM ACh stock was diluted into 10 ml of 0.3% DMSO/external solution
Test compounds were prepared for a 6-point dose response from 0.03-10 μM. Working stocks were prepared from serial dilutions of 10 mM DMSO stock solutions to give a final DMSO concentration of 0.3%. 80 μl of the final concentration of each compound was added to the appropriate wells in an IonFlux^HT assay plate.
2×T175 flasks of α7/CHO cells (˜60-70% confluent) were washed twice with PBS and trypsinized (2 ml) for 3.5 minutes at 37° C./5% CO2. Cells were collected in F-12K complete media, counted and the number required for the assay was calculated, for example, 2×10^6 cells in a final volume of 670 μl of external solution were required to load one zone (one quarter) of an IonFlux^HT assay plate. The correct number of cells was pelleted by centrifuge, the supernatant was discarded and the cell pellet was resuspend in external solution at the required concentration so that cells were added in a volume of 80 μl per well to the IonFlux^HT assay plate.
Calculation of the Effect of Compounds on ACh Mediated Currents in α7 nAChRs:
The effect of test compounds on EC20 ACh-evoked currents was calculated by the formula: […]
The rinse protocol was the initial step in preparation of the IonFlux^HT plate. 80 μl of MilliQ water was added to every well (except Out wells) and the IonFlux^HT assay plate was run through the water rinse protocol on the machine. At the end of the run, the water was discarded from the wells. This action was repeated twice.
Briefly, to prepare the plate for the assay aliquots of cells, compounds and internal and external solutions were added to wells of the prepared IonFlux^HT plate (80 μl/well) (solutions made to manufacturer's specifications). Automated whole cell patch-clamp recordings were made using the standard IonFlux^HT single application protocol. Vacuum was held at 6 psi/hg throughout the experiment and membrane potential was held at −80 mV for 35 sec and then at −60 mV during data acquisition. Two ACh (EC20) pulses were applied at the beginning of the assay, 90 seconds apart, to provide an ACh baseline response then cells were perfused with modulators for 89 sec before ACh (EC20) was applied for 1 s. The calculation of percent potentiation of the acetylcholine response for each well was performed by the data analysis software supplied with the IonFlux^HT.
The following compounds were tested in accordance with the above-procedure for activity and the EC50 values determined are reported: […]
With `COc1ccc(Cl)cc1OC[C@@H]1[C@@H](c2ccc(S(N)(=O)=O)cc2)C1(C)C` (racemic) [Exp. 1, ±trans 4-{3-[(5-chloro-2-methoxyphenoxy)methyl]-2,2-dimethylcyclopropyl}benzenesulfonamide], the pEC50 is 6.98.

For `COc1ccc(Cl)cc1OC[C@@H]1[C@@H](c2ccc(S(N)(=O)=O)cc2)C12CCCC2` (racemic) [Exp. 2, ±trans 4-{2-[(5-chloro-2-methoxyphenoxy)methyl]spiro[2.4]hept-1-yl}benzenesulfonamide], the pEC50 was 6.84.

In the case of `COc1ccc(Cl)cc1OC[C@H]1C[C@@H]1c1ccc(S(N)(=O)=O)cc1` (single isomer, unassigned) [Exp. 47], the pEC50 was 5.43.

Regarding `COc1ccccc1CC[C@@H]1[C@@H](c2ccc(S(N)(=O)=O)cc2)C1(C)C` (single isomer, unassigned) [Exp. 48], the negative logarithm of the EC50 (pEC50) is 6.21.

Turning to `COc1ccc(Cl)cc1CC[C@@H]1[C@@H](c2ccc(S(N)(=O)=O)cc2)C12CCCC2` (single isomer, unassigned) [Exp. 49], the pEC50 was 7.19.

Regarding `COc1ccc(Cl)cc1CC[C@H]1[C@H](c2ccc(S(N)(=O)=O)cc2)C12CCCC2` (single isomer, unassigned) [Exp. 50], the pEC50 is 6.72.

Take `COc1ccc(Cl)cc1CC[C@H]1C[C@@H]1c1ccc(S(N)(=O)=O)cc1` (single isomer, unassigned) [Exp. 51]: the pEC50 was 6.20.

With `COc1ccc(Cl)cc1CC[C@H]1[C@H](c2ccc(S(N)(=O)=O)cc2)C1(C)C` (single isomer, unassigned) [Exp. 52], the pEC50 was 7.27.

Turning to `COc1ccc(Cl)cc1OC[C@@H]1C[C@@H]1c1ccc(S(N)(=O)=O)cc1` (single isomer, unassigned) [Exp. 53], the pEC50 was 5.66.

Regarding `COc1ccc(Cl)cc1CC[C@@H]1[C@@H](c2ccc(S(N)(=O)=O)cc2)C1(C)C` (single isomer, unassigned) [Exp. 54], the pEC50 was 6.91.

On to `CC1(C)[C@H](COc2ccc(Cl)cn2)[C@H]1c1ccc(S(N)(=O)=O)cc1` (single isomer, unassigned) [Exp. 55], for which the pEC50 is 5.83.

Turning to `Cc1ncc(OC[C@H]2[C@H](c3ccc(S(N)(=O)=O)cc3)C2(C)C)cn1` (single isomer, unassigned) [Exp. 56], the pEC50 is below 5.00.

Turning to `CC1(C)[C@@H](COc2cncnc2)[C@@H]1c1ccc(S(N)(=O)=O)cc1` (single isomer, unassigned) [Exp. 57], the pEC50 was below 5.00.

On to `N#Cc1cc(F)ccc1OC[C@@H]1C[C@@H]1c1ccc(S(N)(=O)=O)cc1` (single isomer, unassigned) [Exp. 58], for which the pEC50 is below 5.00.

Test system in another data set: not given
Test: not given
Settings: not given
On to `COc1ccc(Cl)cc1OC[C@@H]1[C@@H](c2ccc(S(N)(=O)=O)cc2)C1(C)C` (racemic) [Exp. 1, ±trans 4-{3-[(5-chloro-2-methoxyphenoxy)methyl]-2,2-dimethylcyclopropyl}benzenesulfonamide], for which the melting point lay in the range of 158 to 160 °C.

As to `COc1ccc(Cl)cc1OC[C@@H]1[C@@H](c2ccc(S(N)(=O)=O)cc2)C12CCCC2` (racemic) [Exp. 2, ±trans 4-{2-[(5-chloro-2-methoxyphenoxy)methyl]spiro[2.4]hept-1-yl}benzenesulfonamide], the melting point lay within 56 to 58 °C.

The values are drawn from patent publication US9994518B2, “Alpha-7 nicotinic acetylcholine receptor modulators and uses thereof” (MERCK SHARP & DOHME CORP., priority 2014, dated 2018).
